Molecules are shown by their SMILES. Counter-ions that a name gives are not always drawn.

Usually IC50 stands for the concentration that gives 50% inhibition.

The test addresses T1, Full-length USP19 (Homo sapiens, UniProt O94966).
T1 construct: Full-length USP19 was purchased from Boston Biochem (E-576); purchased Boston Biochem E-576
T1 sequence (O94966 1-1318): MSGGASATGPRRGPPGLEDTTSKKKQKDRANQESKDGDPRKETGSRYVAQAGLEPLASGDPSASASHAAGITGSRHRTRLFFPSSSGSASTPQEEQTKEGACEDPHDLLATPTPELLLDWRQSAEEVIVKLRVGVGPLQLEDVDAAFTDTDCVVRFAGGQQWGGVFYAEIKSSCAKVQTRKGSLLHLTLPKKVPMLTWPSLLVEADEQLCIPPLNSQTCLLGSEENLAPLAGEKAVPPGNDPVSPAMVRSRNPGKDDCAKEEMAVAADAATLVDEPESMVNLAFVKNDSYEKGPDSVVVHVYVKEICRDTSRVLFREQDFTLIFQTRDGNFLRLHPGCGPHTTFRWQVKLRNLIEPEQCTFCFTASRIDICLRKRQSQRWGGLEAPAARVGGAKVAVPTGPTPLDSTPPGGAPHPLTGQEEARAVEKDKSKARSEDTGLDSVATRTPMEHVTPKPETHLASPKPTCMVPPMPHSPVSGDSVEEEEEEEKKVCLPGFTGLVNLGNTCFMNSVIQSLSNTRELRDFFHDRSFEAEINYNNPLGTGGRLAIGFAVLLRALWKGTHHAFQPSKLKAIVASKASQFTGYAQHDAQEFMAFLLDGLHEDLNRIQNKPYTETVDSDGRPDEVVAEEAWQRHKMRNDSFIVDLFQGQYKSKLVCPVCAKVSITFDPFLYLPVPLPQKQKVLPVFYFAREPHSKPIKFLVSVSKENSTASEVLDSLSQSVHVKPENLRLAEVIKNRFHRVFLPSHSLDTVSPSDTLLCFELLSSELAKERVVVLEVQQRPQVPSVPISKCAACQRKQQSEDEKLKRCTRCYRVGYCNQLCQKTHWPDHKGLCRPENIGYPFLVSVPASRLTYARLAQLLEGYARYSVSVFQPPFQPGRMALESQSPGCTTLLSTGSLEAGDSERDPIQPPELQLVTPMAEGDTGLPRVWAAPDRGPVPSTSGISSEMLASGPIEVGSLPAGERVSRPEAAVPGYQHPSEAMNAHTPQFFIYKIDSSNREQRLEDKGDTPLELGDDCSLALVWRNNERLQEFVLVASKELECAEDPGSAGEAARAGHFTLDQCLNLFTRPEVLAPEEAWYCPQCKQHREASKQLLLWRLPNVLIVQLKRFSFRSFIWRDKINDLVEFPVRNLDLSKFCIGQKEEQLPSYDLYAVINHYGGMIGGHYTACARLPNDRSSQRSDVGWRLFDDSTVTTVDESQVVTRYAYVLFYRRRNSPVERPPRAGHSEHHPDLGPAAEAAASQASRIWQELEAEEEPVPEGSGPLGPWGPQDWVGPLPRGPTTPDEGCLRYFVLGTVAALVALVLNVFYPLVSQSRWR
In words: USP19 fluorescence polarisation (FP) assay, Ubiquitin-Lys-TAMRA substrate. The test is classed as biochemical. The following applies: average of at least two duplicate experiments. Summed up:
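Full-length human USP19 (added at 2.5 nM) was preincubated 30 min at RT with inhibitor (serial dilutions 200 μM to 2 μM) in 50 mM HEPES pH 7.4, 150 mM NaCl, 5 mM DTT, 0.05% BSA, 0.05% CHAPS. Ubiquitin-Lys-TAMRA isopeptide substrate (added at 500 nM) started the reaction, and FP (Ex 530/Em 575 nm) was read every 15 min over 90 min. IC50 came from non-linear regression of signal normalised to no-compound control, averaged over at least two duplicate experiments.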
Turning to `CN[C@@H]1CCN(C(=O)N2CC[C@@H](Cn3cnc(-c4ccccc4)cc3=O)C3(CCCC3)C2)[C@H](c2ccccc2)C1` [Example 56, 3-(((R)-7-((2S,4R)-4-(Methylamino)-2-phenylpiperidine-1-carbonyl)-7-azaspiro[4.5]decan-10-yl)methyl)-6-phenylpyrimidin-4(3H)-one], the IC50 is less than 10 nM.

Regarding `CN[C@@H]1CCN(C(=O)N2CC[C@@H](Cn3cnc(C(F)F)cc3=O)C3(CCCC3)C2)[C@H](c2ccc(F)cc2F)C1` [Example 130, 6-(Difluoromethyl)-3-(((R)-7-((2S,4R)-2-(2,4-difluorophenyl)-4-(methylamino)piperidine-1-carbonyl)-7-azaspiro[4.5]decan-10-yl)methyl)pyrimidin-4(3H)-one], the IC50 is less than 10 nM.

For `CN[C@@H]1CCN(C(=O)N2CC[C@@H](Cn3cnc(-c4ccccc4F)cc3=O)C3(CCCC3)C2)[C@H](c2cc(F)cc(F)c2)C1` [Example 143, 3-(((R)-7-((2S,4R)-2-(3,5-Difluorophenyl)-4-(methylamino)piperidine-1-carbonyl)-7-azaspiro[4.5]decan-10-yl)methyl)-6-(2-fluorophenyl)pyrimidin-4(3H)-one], the IC50 is less than 10 nM.

`N[C@@H]1CCN(C(=O)N2CC[C@@H](Cn3cnc4ccc(F)cc4c3=O)C3(CCCC3)C2)[C@H](c2ccccc2)C1` [Example 100, 3-(((R)-7-((2S,4R)-4-Amino-2-phenylpiperidine-1-carbonyl)-7-azaspiro[4.5]decan-10-yl)methyl)-6-fluoroquinazolin-4(3H)-one]: the IC50 was less than 10 nM.

Regarding `CN[C@@H]1CCN(C(=O)N2CC[C@@H](Cn3cnc(-c4ccccc4C)cc3=O)C3(CCCC3)C2)[C@H](c2cc(F)cc(F)c2)C1` [Example 146, 3-(((R)-7-((2S,4R)-2-(3,5-Difluorophenyl)-4-(methylamino)piperidine-1-carbonyl)-7-azaspiro[4.5]decan-10-yl)methyl)-6-(o-tolyl)pyrimidin-4(3H)-one], the IC50 is less than 10 nM.

For `CN[C@@H]1CCN(C(=O)N2CC[C@@H](Cn3ccc(-c4ccccc4OC)cc3=O)C3(CCCC3)C2)[C@H](c2cccc(F)c2F)C1` [Example 131, 1-(((R)-7-((2S,4R)-2-(2,3-Difluorophenyl)-4-(methylamino)piperidine-1-carbonyl)-7-azaspiro[4.5]decan-10-yl)methyl)-4-(2-methoxyphenyl)pyridin-2(1H)-one], the IC50 was less than 10 nM.

As for `O=C(N1CC[C@@H](Cn2cnc(-c3ccccc3)cc2=O)C2(CCCC2)C1)N1CC[C@@H](NC2CC(F)(F)C2)C[C@H]1c1ccccc1` [Example 135, 3-(((R)-7-((2S,4R)-4-((3,3-Difluorocyclobutyl)amino)-2-phenylpiperidine-1-carbonyl)-7-azaspiro[4.5]decan-10-yl)methyl)-6-phenylpyrimidin-4(3H)-one], the IC50 is less than 10 nM.

Consider `CCN[C@@H]1CCN(C(=O)N2CC[C@@H](Cn3cnc4ccc(F)cc4c3=O)C3(CCCC3)C2)[C@H](c2cc(F)ccc2F)C1` [Example 162, 3-(((R)-7-((2S,4R)-2-(2,5-Difluorophenyl)-4-(ethylamino)piperidine-1-carbonyl)-7-azaspiro[4.5]decan-10-yl)methyl)-6-fluoroquinazolin-4(3H)-one], for which the IC50 was less than 10 nM.

As for `N[C@@H]1CCN(C(=O)N2CC[C@@H](Cn3cnc(-c4ccccc4)cc3=O)C3(CCCC3)C2)[C@H](c2ccccc2)C1` [Example 25], the IC50 is less than 10 nM.

On to `COc1ccccc1-c1ccn(C[C@@H]2CCN(C(=O)N3CC[C@@H](N)C[C@H]3c3cc(F)ccc3F)CC23CCCC3)c(=O)c1` [Example 89, 1-(((R)-7-((2S,4R)-4-Amino-2-(2,5-difluorophenyl)piperidine-1-carbonyl)-7-azaspiro[4.5]decan-10-yl)methyl)-4-(2-methoxyphenyl)pyridin-2(1H)-one], for which the IC50 was less than 10 nM.

Consider `CN(C)[C@@H]1CCN(C(=O)N2CC[C@@H](Cn3cnc4ccc(F)cc4c3=O)C3(CCCC3)C2)[C@H](c2cc(F)cc(F)c2)C1` [Example 184, 3-(((R)-7-((2S,4R)-2-(3,5-Difluorophenyl)-4-(dimethylamino)piperidine-1-carbonyl)-7-azaspiro[4.5]decan-10-yl)methyl)-6-fluoroquinazolin-4(3H)-one hydrochloride], for which the IC50 lay in the range of 100 to 1000 nM.

As for `CN[C@@H]1CCN(C(=O)N2CC[C@@H](Cn3cnc(-c4ccccc4F)cc3=O)C3(CCCC3)C2)[C@H](c2ccc(F)cc2F)C1` [Example 141, 3-(((R)-7-((2S,4R)-2-(2,4-Difluorophenyl)-4-(methylamino)piperidine-1-carbonyl)-7-azaspiro[4.5]decan-10-yl)methyl)-6-(2-fluorophenyl)pyrimidin-4(3H)-one], the IC50 was less than 10 nM.

On to `CN[C@@H]1CCN(C(=O)N2CC[C@@H](Cn3cnc(-c4ccccc4)cc3=O)C3(CCCC3)C2)[C@H](c2cc(F)ccc2F)C1` [Example 78, 3-(((R)-7-((2S,4R)-2-(2,5-Difluorophenyl)-4-(methylamino)piperidine-1-carbonyl)-7-azaspiro[4.5]decan-10-yl)methyl)-6-phenylpyrimidin-4(3H)-one], for which the IC50 was less than 10 nM.

In the case of `CN[C@@H]1CCN(C(=O)N2CC[C@@H](Cn3cnc(-c4ccccc4F)cc3=O)C3(CCCC3)C2)[C@H](c2ccc(F)c(F)c2)C1` [Example 142, 3-(((R)-7-((2S,4R)-2-(3,4-Difluorophenyl)-4-(methylamino)piperidine-1-carbonyl)-7-azaspiro[4.5]decan-10-yl)methyl)-6-(2-fluorophenyl)pyrimidin-4(3H)-one], the IC50 was less than 10 nM.

For `CN[C@@H]1CCN(C(=O)N2CC[C@@H](Cn3ncccc3=O)C3(CCCC3)C2)[C@H](c2ccc(F)cc2F)C1` [Example 129, 2-(((R)-7-((2S,4R)-2-(2,4-Difluorophenyl)-4-(methylamino)piperidine-1-carbonyl)-7-azaspiro[4.5]decan-10-yl)methyl)pyridazin-3(2H)-one], the IC50 is 10 to 100 nM.

Consider `CN[C@@H]1CCN(C(=O)N2CC[C@@H](Cn3cnc(-c4ccccc4C)cc3=O)C3(CCCC3)C2)[C@H](c2ccc(F)cc2F)C1` [Example 137, 3-(((R)-7-((2S,4R)-2-(2,4-Difluorophenyl)-4-(methylamino)piperidine-1-carbonyl)-7-azaspiro[4.5]decan-10-yl)methyl)-6-(o-tolyl)pyrimidin-4(3H)-one], for which the IC50 is less than 10 nM.

Regarding `CN[C@@H]1CCN(C(=O)N2CC[C@@H](Cn3ccc(-c4ccccc4C)cc3=O)C3(CCCC3)C2)[C@H](c2ccccc2)C1` [Example 54, 1-(((R)-7-((2S,4R)-4-(Methylamino)-2-phenylpiperidine-1-carbonyl)-7-azaspiro[4.5]decan-10-yl)methyl)-4-(o-tolyl)pyridin-2(1H)-one], the IC50 is less than 10 nM.

On to `CN[C@@H]1CCN(C(=O)N2CC[C@@H](Cn3cnc(C4CC4)cc3=O)C3(CCCC3)C2)[C@H](c2cc(F)ccc2F)C1` [Example 163, 6-Cyclopropyl-3-(((R)-7-((2S,4R)-2-(2,5-difluorophenyl)-4-(methylamino)piperidine-1-carbonyl)-7-azaspiro[4.5]decan-10-yl)methyl)pyrimidin-4(3H)-one], for which the IC50 was less than 10 nM.

On to `N[C@@H]1CCN(C(=O)N2CCC(Cn3cnc(C(F)(F)F)cc3=O)C3(CCCC3)C2)[C@H](c2ccccc2)C1` (stereo partly drawn) [Example 34, 3-((7-((2S,4R)-4-Amino-2-phenylpiperidine-1-carbonyl)-7-azaspiro[4.5]decan-10-yl)methyl)-6-(trifluoromethyl) pyrimidin-4(3H)-one], for which the IC50 fell in the range of 10 to 100 nM.

Turning to `CN[C@@H]1CCN(C(=O)N2CC[C@@H](Cn3cnc(-c4ccccc4)cc3=O)C3(CCCC3)C2)[C@H](c2cccc(F)c2F)C1` [Example 132, 3-(((R)-7-((2S,4R)-2-(2,3-Difluorophenyl)-4-(methylamino)piperidine-1-carbonyl)-7-azaspiro[4.5]decan-10-yl)methyl)-6-phenylpyrimidin-4(3H)-one], the IC50 was less than 10 nM.

The values are drawn from patent US20240327382A1 (ALMAC DISCOVERY LIMITED, priority 2021, published 2024).
